Test results taken from ChEMBL document CHEMBL5247586, “Discovery of fusidic acid derivatives as novel STING inhibitors for treatment of sepsis” (Eur J Med Chem, 2022).
The source made the active and inactive calls. The rule behind the calls is not given here.

Tested on: Mus musculus
Experiment: Protective activity against LPS induced sepsis in BALB/c mouse model of acute liver injury assessed as reduction in AST level in serum at 1.25 to 5 mg/kg, IG administered once a day for 3 days followed by LPS stimulation for 12 hrs starting from 2 hrs post last dose by ELISA
Assay type: functional, organism-based
Conditions: dose 1.25-5 mg/kg, time 86.0 hrs

In the case of `C=CCONC(=O)CCSSCCC(=O)O[C@@H]1CC[C@@]2(C)[C@@H](CC[C@@]3(C)[C@H]2[C@H](O)C[C@H]2/C(=C(\CCC=C(C)C)C(=O)OCc4ccccc4)[C@@H](OC(C)=O)C[C@@]23C)[C@@H]1C`, the Activity was “Active”.
